{
  "source": "patent US11579141B2",
  "about": "“Methods for identifying a non-healing skin wound and for monitoring the healing of a skin wound” (AKRIBES BIOMEDICAL GMBH, priority 2016, dated 2023)",
  "key": {"[1]": {"system": "primary human dermal fibroblasts (HDF)", "experiment": "Primary human dermal fibroblast (HDF) proliferation assay (2D), SRB staining", "format": "cell-based", "method": "Primary human dermal fibroblasts (HDF) were purchased from CELLnTEC, Bern. They were routinely grown in Dulbecco's modified Eagle's medium (DMEM) containing 10% FCS, 2 mM glutamine, and 100 U/ml penicillin/100 μg/ml streptomycin. Media, antibiotics, and glutamine were bought from Lonza. The cells were used at passage 10. Cells were trypsinized and seeded at 5000 cells/well in 200 μl into the inner wells of 96-well plates. The outer wells were loaded with sterile water. The cells were allowed to adhere overnight and then incubated for 72 hours at 37° C. under the following conditions: graded compound concentrations or 20 ng/ml PDGF-BB (Tonbo Biosciences # TO-21-8501-U010) in the absence or presence of different dilutions of sterile-filtered WE in medium. For negative control samples, 200 μl medium was added instead of specific stimuli. Alternatively, the cells were seeded into 384-well plates at 2500 cells/well together with test compounds or growth factors and WE or medium in a total volume of 50 μl. […]\nTotal cellular protein was determined as a measure of cell number by staining the fixed cells with sulforhodamine B (SRB, Sigma). […] After drying, the dye was eluted with 10 mM Tris.HCl, pH8.5, and absorbance was measured either at 550 or 492 nm for lower and higher cell densities, respectively. The average absorbance of the sample representing the day 1 starting cell number (for 96-well plates) was subtracted from the absorbance values of the WE-treated cells.\nAll experiments were carried out in triplicate for each sample and concentration, and means±standard deviation (SD) were used for the evaluation of the experiment. Results are expressed as percentage of control values for unstimulated cells.\nFor screening with WE, compound results were calculated as % proliferation of untreated and unstimulated control (=100%), and the cut-off for a positive hit was defined as % average proliferationWE+3*standard deviation, as shown in FIG. 5."}, "chronic wounds": {"system": "chronic wounds", "details": "non-steroidal anti-inflammatory drug; cited from earlier work"}},
  "data": [
    {"compound": "CNC(=O)[C@H](Cc1c[nH]c2ccccc12)NC(=O)[C@@H](CC(=O)NO)CC(C)C", "note": "[GM6001]", "values": [
      {"measurement": "effect on the effect of wound exudate on HDF proliferation", "setting": "[1]; in presence of WE #49 (highest MMP activity), FIG. 22", "value": "partially reverses"},
      {"measurement": "effect on HDF proliferation", "setting": "[1]; medium or WE without MMP activity, FIG. 22", "value": "no effect"}
    ]},
    {"compound": "CC(C)Cc1ccc(C(C)C(=O)O)cc1", "note": "(stereo not shown) [ibuprofen]", "values": [
      {"measurement": "effectiveness in wounds", "setting": "chronic wounds", "value": "only effective in ameliorating wound pain"}
    ]},
    {"compound": "PDGF", "values": [
      {"measurement": "effect on the growth inhibitory effect of wound exudate in 2D fibroblast proliferation", "setting": "[1]; in presence of aggressive, non-healing WE #49, FIG. 21", "value": "only partially reverses"}
    ]}
  ]
}
